# Read-outs that look alike come from different tables or passages of the source.
# Columns and labels:
# Assay in all cases: Kinase assay, binding constants (Kd), kinase-tagged T7 phage, qPCR
# FGFR1 = FGFR1 (Homo sapiens (Human), UniProt P11362)
# How it was run: (§1)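 Competition binding: T7 phage-tagged kinase + biotin-ligand beads + compound (11 pts, 3-fold, 0.9% DMSO). Elution 30 min RT with free ligand; qPCR quantitation. Kd via Hill fit, slope −1.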
# FGFR2 = FGFR2 (Homo sapiens (Human), UniProt P21802)
# FGFR2, sequence (P21802 22-821): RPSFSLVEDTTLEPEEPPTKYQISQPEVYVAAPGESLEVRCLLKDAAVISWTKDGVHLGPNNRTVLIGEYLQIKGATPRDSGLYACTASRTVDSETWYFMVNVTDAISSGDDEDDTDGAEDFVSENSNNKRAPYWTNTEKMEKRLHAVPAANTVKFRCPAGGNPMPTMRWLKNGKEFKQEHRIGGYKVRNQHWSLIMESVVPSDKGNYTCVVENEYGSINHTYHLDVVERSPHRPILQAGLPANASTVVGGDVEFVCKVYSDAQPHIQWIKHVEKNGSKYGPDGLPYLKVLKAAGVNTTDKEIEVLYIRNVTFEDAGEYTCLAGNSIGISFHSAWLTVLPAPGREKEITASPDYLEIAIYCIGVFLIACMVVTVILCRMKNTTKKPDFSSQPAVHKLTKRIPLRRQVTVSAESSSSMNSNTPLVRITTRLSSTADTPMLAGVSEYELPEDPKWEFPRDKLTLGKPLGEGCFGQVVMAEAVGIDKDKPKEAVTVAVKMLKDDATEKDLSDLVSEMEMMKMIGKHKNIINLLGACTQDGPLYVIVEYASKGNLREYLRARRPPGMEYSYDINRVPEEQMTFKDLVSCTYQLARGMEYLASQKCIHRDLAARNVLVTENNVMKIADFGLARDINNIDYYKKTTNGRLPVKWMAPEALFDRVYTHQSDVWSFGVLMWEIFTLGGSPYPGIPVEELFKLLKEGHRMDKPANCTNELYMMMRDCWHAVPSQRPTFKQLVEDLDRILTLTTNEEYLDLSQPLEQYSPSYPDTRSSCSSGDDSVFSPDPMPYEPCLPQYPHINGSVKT
# How it was run: as §1
# FGFR4 = FGFR4 (Homo sapiens (Human), UniProt P22455)
# FGFR4, sequence (P22455 22-802): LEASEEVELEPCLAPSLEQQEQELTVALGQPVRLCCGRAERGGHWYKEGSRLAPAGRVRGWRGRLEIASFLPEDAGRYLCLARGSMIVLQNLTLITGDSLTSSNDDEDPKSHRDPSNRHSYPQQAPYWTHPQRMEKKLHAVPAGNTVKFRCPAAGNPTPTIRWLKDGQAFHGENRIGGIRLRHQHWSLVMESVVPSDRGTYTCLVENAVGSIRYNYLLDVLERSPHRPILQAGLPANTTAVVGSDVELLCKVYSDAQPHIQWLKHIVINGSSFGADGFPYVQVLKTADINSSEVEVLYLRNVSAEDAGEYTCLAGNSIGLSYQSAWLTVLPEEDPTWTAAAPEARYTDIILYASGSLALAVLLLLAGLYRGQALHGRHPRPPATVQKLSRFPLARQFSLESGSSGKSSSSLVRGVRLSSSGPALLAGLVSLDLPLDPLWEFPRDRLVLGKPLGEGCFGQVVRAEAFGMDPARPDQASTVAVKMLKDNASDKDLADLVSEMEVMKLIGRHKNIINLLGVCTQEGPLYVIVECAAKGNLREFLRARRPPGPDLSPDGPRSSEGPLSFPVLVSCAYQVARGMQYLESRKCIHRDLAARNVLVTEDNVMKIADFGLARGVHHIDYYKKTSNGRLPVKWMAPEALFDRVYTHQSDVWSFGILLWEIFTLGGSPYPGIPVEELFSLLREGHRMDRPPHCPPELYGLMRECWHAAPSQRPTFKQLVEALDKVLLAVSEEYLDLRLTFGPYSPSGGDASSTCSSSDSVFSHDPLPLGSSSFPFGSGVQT
# How it was run: as §1
# FGFR3 (V555M) = FGFR3 (V555M) (Homo sapiens (Human), UniProt P22607, V555M); conditions: V555M mutant
# FGFR3 (V555M), sequence (P22607 23-806 V555M): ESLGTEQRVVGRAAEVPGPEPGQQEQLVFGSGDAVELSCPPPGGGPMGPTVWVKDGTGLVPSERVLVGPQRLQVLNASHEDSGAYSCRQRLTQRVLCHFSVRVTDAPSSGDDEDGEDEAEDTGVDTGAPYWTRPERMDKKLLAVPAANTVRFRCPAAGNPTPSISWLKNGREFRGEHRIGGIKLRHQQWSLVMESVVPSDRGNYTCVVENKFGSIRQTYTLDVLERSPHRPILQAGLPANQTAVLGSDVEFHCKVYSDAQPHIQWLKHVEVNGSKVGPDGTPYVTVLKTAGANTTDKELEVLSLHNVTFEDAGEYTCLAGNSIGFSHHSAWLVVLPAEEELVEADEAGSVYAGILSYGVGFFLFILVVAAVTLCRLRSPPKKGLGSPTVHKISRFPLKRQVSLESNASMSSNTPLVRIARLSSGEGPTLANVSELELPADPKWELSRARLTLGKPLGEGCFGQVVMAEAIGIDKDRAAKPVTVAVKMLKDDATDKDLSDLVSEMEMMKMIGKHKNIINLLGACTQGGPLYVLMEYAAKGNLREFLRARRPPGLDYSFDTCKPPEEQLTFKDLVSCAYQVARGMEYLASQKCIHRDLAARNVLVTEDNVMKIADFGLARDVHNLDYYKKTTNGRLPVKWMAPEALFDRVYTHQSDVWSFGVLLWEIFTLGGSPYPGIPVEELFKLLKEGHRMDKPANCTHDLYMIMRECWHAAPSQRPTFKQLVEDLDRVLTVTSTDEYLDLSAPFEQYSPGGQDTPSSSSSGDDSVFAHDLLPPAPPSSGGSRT
# How it was run: as §1
# FGFR3 = FGFR3 (Homo sapiens (Human), UniProt P22607)
# FGFR3, sequence (P22607 23-806): as the sequence (P22607 23-806 V555M) above, with M533V counted along it
# How it was run: as §1
# FGFR1, sequence (P11362 22-822): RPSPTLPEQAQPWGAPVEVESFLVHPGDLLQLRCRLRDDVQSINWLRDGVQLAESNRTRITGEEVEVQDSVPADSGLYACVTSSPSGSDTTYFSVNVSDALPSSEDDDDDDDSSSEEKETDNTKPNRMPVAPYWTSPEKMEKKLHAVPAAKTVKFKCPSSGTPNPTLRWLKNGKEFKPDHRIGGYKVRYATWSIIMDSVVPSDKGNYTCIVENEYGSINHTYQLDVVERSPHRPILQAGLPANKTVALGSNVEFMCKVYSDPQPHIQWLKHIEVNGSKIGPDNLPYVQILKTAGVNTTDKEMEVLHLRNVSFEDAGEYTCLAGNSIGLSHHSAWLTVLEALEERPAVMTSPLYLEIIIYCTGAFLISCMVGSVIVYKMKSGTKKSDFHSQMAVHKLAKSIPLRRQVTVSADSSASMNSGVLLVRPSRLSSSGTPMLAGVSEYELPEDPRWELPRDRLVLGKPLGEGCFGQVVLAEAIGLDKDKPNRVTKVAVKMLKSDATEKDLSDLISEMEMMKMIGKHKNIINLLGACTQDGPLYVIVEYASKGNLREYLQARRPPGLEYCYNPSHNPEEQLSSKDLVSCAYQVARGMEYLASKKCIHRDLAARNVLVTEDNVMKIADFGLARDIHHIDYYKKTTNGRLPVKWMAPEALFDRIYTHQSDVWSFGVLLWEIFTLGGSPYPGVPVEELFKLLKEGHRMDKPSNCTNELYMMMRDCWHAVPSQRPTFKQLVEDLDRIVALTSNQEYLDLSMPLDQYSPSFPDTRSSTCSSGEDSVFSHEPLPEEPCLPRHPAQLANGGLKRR
Kd (FGFR1),Kd (FGFR2),Kd (FGFR4),Kd (FGFR3 (V555M)),Kd (FGFR3),Kd (FGFR3; given as a number),Compound
100 to 300 nM,100 to 300 nM,1 to 20 nM,1 to 20 nM,20 to 100 nM,,"C[C@@H](Oc1ccc2[nH]nc(-c3cnc(N4CC5(CN(CC(F)F)C5)C4)c(C#N)c3)c2c1)c1c(Cl)cncc1Cl [Example 330, (R)-5-(5-(1-(3,5-dichloropyridin-4-yl)ethoxy)-1H-indazol-3-yl)-2-(6-(2,2-difluoroethyl)-2,6-diazaspiro[3.3]heptan-2-yl)nicotinonitrile]"
100 to 300 nM,100 to 300 nM,1 to 20 nM,1 to 20 nM,1 to 20 nM,,"C[C@@H](Oc1ccc2[nH]nc(-c3cnc(N4CC5C(O)C5C4)c(C#N)c3)c2c1)c1c(Cl)cncc1Cl (stereo partly drawn) [Example 331, 5-(5-((R)-1-(3,5-dichloropyridin-4-yl)ethoxy)-1H-indazol-3-yl)-2-(6-hydroxy-3-azabicyclo[3.1.0]hexan-3-yl)nicotinonitrile]"
20 to 100 nM,20 to 100 nM,1 to 20 nM,1 to 20 nM,1 to 20 nM,,"C[C@@H](Oc1ccc2[nH]nc(-c3cnc(N4CCC[C@@H]4CO)c(C#N)c3)c2c1)c1c(Cl)cncc1Cl [Example 332, 5-(5-((R)-1-(3,5-dichloropyridin-4-yl)ethoxy)-1H-indazol-3-yl)-2-((R)-2-(hydroxymethyl)pyrrolidin-1-yl)nicotinonitrile]"
100 to 300 nM,100 to 300 nM,1 to 20 nM,1 to 20 nM,20 to 100 nM,,"COc1cc2[nH]nc(-c3cnc(N4CCCC4)c(C#N)c3)c2cc1O[C@H](C)c1c(Cl)cncc1Cl [Example 333, 5-[5-[(1R)-1-(3,5-dichloro-4-pyridyl)ethoxy]-6-methoxy-1H-indazol-3-yl]-2-pyrrolidin-1-yl-pyridine-3-carbonitrile]"
20 to 100 nM,20 to 100 nM,1 to 20 nM,1 to 20 nM,1 to 20 nM,,"C[C@@H](Oc1ccc2[nH]nc(-c3cnc(N4CCC[C@H]4CO)c(C#N)c3)c2c1)c1c(Cl)cncc1Cl [Example 334, 5-(5-((R)-1-(3,5-dichloropyridin-4-yl)ethoxy)-1H-indazol-3-yl)-2-((S)-2-(hydroxymethyl)pyrrolidin-1-yl)nicotinonitrile]"
1 to 20 nM,20 to 100 nM,1 to 20 nM,1 to 20 nM,1 to 20 nM,,"Cc1cnnc(C)c1[C@@H](C)Oc1ccc2[nH]nc(-c3cnc(N4CCC[C@@H]4CO)c(C#N)c3)c2c1 [Example 335, 5-(5-((R)-1-(3,5-dimethylpyridazin-4-yl)ethoxy)-1H-indazol-3-yl)-2-((R)-2-(hydroxymethyl)pyrrolidin-1-yl)nicotinonitrile]"
20 to 100 nM,20 to 100 nM,1 to 20 nM,1 to 20 nM,20 to 100 nM,,"Cc1cnnc(C)c1[C@@H](C)Oc1ccc2[nH]nc(-c3cnc(N4CCC[C@H]4CO)c(C#N)c3)c2c1 [Example 336, 5-(5-((R)-1-(3,5-dimethylpyridazin-4-yl)ethoxy)-1H-indazol-3-yl)-2-((S)-2-(hydroxymethyl)pyrrolidin-1-yl)nicotinonitrile]"
20 to 100 nM,100 to 300 nM,1 to 20 nM,1 to 20 nM,20 to 100 nM,,"C[C@@H](Oc1ccc2[nH]nc(-c3cnc(N4CC5(C4)CN(S(C)(=O)=O)C5)c(C#N)c3)c2c1)c1c(Cl)cncc1Cl [Example 337, (R)-5-(5-(1-(3,5-dichloropyridin-4-yl)ethoxy)-1H-indazol-3-yl)-2-(6-(methylsulfonyl)-2,6-diazaspiro[3.3]heptan-2-yl)nicotinonitrile]"
100 to 300 nM,> 300 nM,1 to 20 nM,1 to 20 nM,20 to 100 nM,,"C[C@@H](Oc1ccc2[nH]nc(-c3cnc(N4CC5(CCCN(S(C)(=O)=O)C5)C4)c(C#N)c3)c2c1)c1c(Cl)cncc1Cl [Example 338, (R)-5-(5-(1-(3,5-dichloropyridin-4-yl)ethoxy)-1H-indazol-3-yl)-2-(6-(methylsulfonyl)-2,6-diazaspiro[3.5]nonan-2-yl)nicotinonitrile]"
1 to 20 nM,1 to 20 nM,1 to 20 nM,1 to 20 nM,1 to 20 nM,,"COc1cc2[nH]nc(-c3cnc(N4CC5(CCS(=O)(=O)C5)C4)c(C#N)c3)c2cc1O[C@H](C)c1c(Cl)cncc1Cl [Example 339, (R)-5-(5-(1-(3,5-dichloropyridin-4-yl)ethoxy)-6-methoxy-1H-indazol-3-yl)-2-(6,6-dioxido-6-thia-2-azaspiro[3.4]octan-2-yl)nicotinonitrile]"
100 to 300 nM,100 to 300 nM,1 to 20 nM,100 to 300 nM,1 to 20 nM,,"C[C@@H](Oc1ccc2[nH]nc(-c3cnc(N4CC5(CCCS(=O)(=O)C5)C4)c(C#N)c3)c2c1)c1c(Cl)cncc1Cl [Example 340, (R)-5-(5-(1-(3,5-dichloropyridin-4-yl)ethoxy)-1H-indazol-3-yl)-2-(6,6-dioxido-6-thia-2-azaspiro[3.5]nonan-2-yl)nicotinonitrile]"
20 to 100 nM,20 to 100 nM,1 to 20 nM,1 to 20 nM,1 to 20 nM,,"COc1cc2[nH]nc(-c3cnc(N4CC5(C4)CN(S(C)(=O)=O)C5)c(C#N)c3)c2cc1O[C@H](C)c1c(Cl)cnc(C)c1Cl [Example 341, 5-[5-[(1R)-1-(3,5-dichloro-2-methyl-4-pyridyl)ethoxy]-6-methoxy-1H-indazol-3-yl]-2-(2-methylsulfonyl-2,6-diazaspiro[3.3]heptan-6-yl)pyridine-3-carbonitrile]"
20 to 100 nM,1 to 20 nM,1 to 20 nM,1 to 20 nM,1 to 20 nM,,"COc1cc2[nH]nc(-c3cnc(N4CC5(C4)CN(S(C)(=O)=O)C5)c(C#N)c3)c2cc1O[C@H](C)c1c(Cl)cncc1Cl [Example 342, 5-[5-[(1R)-1-(3,5-dichloro-4-pyridyl)ethoxy]-6-methoxy-1H-indazol-3-yl]-2-(2-methylsulfonyl-2,6-diazaspiro[3.3]heptan-6-yl)pyridine-3-carbonitrile]"
20 to 100 nM,20 to 100 nM,1 to 20 nM,1 to 20 nM,1 to 20 nM,,"C[C@@H](Oc1ccc2[nH]nc(-c3cnc(N4CC5(CCS(=O)(=O)C5)C4)c(C#N)c3)c2c1)c1c(Cl)cncc1Cl [Example 343, (R)-5-(5-(1-(3,5-dichloropyridin-4-yl)ethoxy)-1H-indazol-3-yl)-2-(6,6-dioxido-6-thia-2-azaspiro[3.4]octan-2-yl)nicotinonitrile]"
> 300 nM,> 300 nM,1 to 20 nM,20 to 100 nM,100 to 300 nM,,"COc1cc(-c2n[nH]c3ccc(O[C@H](C)c4c(Cl)cncc4Cl)cc23)cnc1N1CC2(C1)CN(S(C)(=O)=O)C2 [Example 344, (R)-5-(1-(3,5-dichloropyridin-4-yl)ethoxy)-3-(5-methoxy-6-(6-(methylsulfonyl)-2,6-diazaspiro[3.3]heptan-2-yl)pyridin-3-yl)-1H-indazole]"
> 300 nM,> 300 nM,1 to 20 nM,20 to 100 nM,20 to 100 nM,,"C[C@@H](Oc1ccc2[nH]nc(-c3cnc(N4CC(C(F)F)C4)c(C#N)c3)c2c1)c1c(Cl)cncc1Cl [Example 345, (R)-5-(5-(1-(3,5-dichloropyridin-4-yl)ethoxy)-1H-indazol-3-yl)-2-(3-(difluoromethyl)azetidin-1-yl)nicotinonitrile]"
1 to 20 nM,1 to 20 nM,1 to 20 nM,1 to 20 nM,1 to 20 nM,,"COc1cc2[nH]nc(-c3cnc(N4CC5(CCCS(=O)(=O)C5)C4)c(C#N)c3)c2cc1O[C@H](C)c1c(Cl)cncc1Cl [Example 346, (R)-5-(5-(1-(3,5-dichloropyridin-4-yl)ethoxy)-6-methoxy-1H-indazol-3-yl)-2-(6,6-dioxido-6-thia-2-azaspiro[3.5]nonan-2-yl)nicotinonitrile]"
> 300 nM,> 300 nM,1 to 20 nM,20 to 100 nM,20 to 100 nM,,"C[C@@H](Oc1ccc2[nH]nc(-c3cnc(N4CC(C(F)(F)F)C4)c(C#N)c3)c2c1)c1c(Cl)cncc1Cl [Example 347, (R)-5-(5-(1-(3,5-dichloropyridin-4-yl)ethoxy)-1H-indazol-3-yl)-2-(3-(trifluoromethyl)azetidin-1-yl)nicotinonitrile]"
20 to 100 nM,> 300 nM,1 to 20 nM,1 to 20 nM,1 to 20 nM,,"C[C@@H](Oc1ccc2[nH]nc(-c3cnc(N4CC(C#N)C4)c(C#N)c3)c2c1)c1c(Cl)cncc1Cl [Example 348, (R)-2-(3-cyanoazetidin-1-yl)-5-(5-(1-(3,5-dichloropyridin-4-yl)ethoxy)-1H-indazol-3-yl)nicotinonitrile]"
100 to 300 nM,100 to 300 nM,1 to 20 nM,1 to 20 nM,20 to 100 nM,,"Cc1ncc(Cl)c([C@@H](C)Oc2ccc3[nH]nc(-c4cnc(N5CC6(CCCS(=O)(=O)C6)C5)c(C#N)c4)c3c2)c1Cl [Example 349, 5-[5-[(1R)-1-(3,5-dichloro-2-methyl-4-pyridyl)ethoxy]-1H-indazol-3-yl]-2-(6,6-dioxo-6λ^6-thia-2-azaspiro[3.5]nonan-2-yl)pyridine-3-carbonitrile]"
> 300 nM,100 to 300 nM,1 to 20 nM,20 to 100 nM,,90 nM,"Cc1ncc(Cl)c([C@@H](C)Oc2ccc3[nH]nc(-c4cnc(N5CC6(CCCN(S(C)(=O)=O)C6)C5)c(C#N)c4)c3c2)c1Cl [Example 350, 5-[5-[(1R)-1-(3,5-dichloro-2-methyl-4-pyridyl)ethoxy]-1H-indazol-3-yl]-2-(8-methylsulfonyl-2,8-diazaspiro[3.5]nonan-2-yl)pyridine-3-carbonitrile]"
